Assay results taken from US9708314B2, “Heterocyclic amide compound” (NISSAN CHEMICAL INDUSTRIES, LTD., priority 2013, dated 2017).

Columns and labels:
Assay type in all cases: in vivo
Cyperus difformis = experiment: Test Example 3: herbicidal effect by application to foliage (Wagner pot, water depth 0.1-0.5 cm); details: Nineteenth Table; application to foliage; application herbicide amount 320 g/ha
Procedure, shortened: (§1)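 Visual 0–5 rating of herbicidal ratio, taken 3 weeks after foliar spray of a diluted emulsion formulation at rates expressed as g/ha. Plants had been sown in alluvial soil under 0.1–0.5 cm water and grown 14 days at 25–30 °C under glass before application.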

[1] = test system: Echinochloa crus-galli var. crus-galli; experiment: as above; details: Nineteenth Table; application to foliage; application herbicide amount 320 g/ha
Procedure, shortened: as §1

Leptochloa chinensis = experiment: as above; details: Nineteenth Table; application to foliage; application herbicide amount 320 g/ha
Procedure, shortened: as §1

Chenopodium album = experiment: Test Example 4: herbicidal effect by application to foliage (diluvial soil, plastic box); details: application to foliage, application herbicide amount 320 g/ha
Procedure, shortened: (§2)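 Greenhouse plants (25° C. to 30° C., 14 d, diluvial soil) receive a foliar spray of water-diluted emulsifiable formulation at defined g/ha. Grading after 3 weeks uses a six-step herbicidal-ratio scale, with 4 covering 70% to <90% and 1 covering 5% to <20%.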

Apera spica-venti. = experiment: as above; details: application to foliage, application herbicide amount 320 g/ha
Procedure, shortened: as §2

Galium spurium = experiment: as above; details: application to foliage, application herbicide amount 320 g/ha
Procedure, shortened: as §2

Alopecurus myosuroides = experiment: as above; details: application to foliage, application herbicide amount 320 g/ha
Procedure, shortened: as §2

Abutilon theophrasti = experiment: as above; details: application to foliage, application herbicide amount 320 g/ha
Procedure, shortened: as §2

Digitaria ciliaris = experiment: as above; details: application to foliage, application herbicide amount 320 g/ha
Procedure, shortened: as §2

Setaria viridis = experiment: as above; details: application to foliage, application herbicide amount 320 g/ha
Procedure, shortened: as §2

Avena fatua = experiment: as above; details: application to foliage, application herbicide amount 320 g/ha
Procedure, shortened: as §2

Lolium multiflorum Lam. = experiment: as above; details: application to foliage, application herbicide amount 320 g/ha
Procedure, shortened: as §2

[2] = test system: Echinochloa crus-galli var. crus-galli; experiment: as above; details: application to foliage, application herbicide amount 320 g/ha
Procedure, shortened: as §2

[3] = test system: directly sowed Oryza sativa; experiment: Test Example 4: effect on crop by application to foliage (diluvial soil, plastic box); details: application to foliage, application herbicide amount 320 g/ha
Procedure, shortened: as §2

Zea mays = experiment: as above; details: application to foliage, application herbicide amount 320 g/ha
Procedure, shortened: as §2

Glycine max = experiment: as above; details: application to foliage, application herbicide amount 320 g/ha
Procedure, shortened: as §2

Triticum aestivum = experiment: as above; details: application to foliage, application herbicide amount 320 g/ha
Procedure, shortened: as §2

Brassica campestris L. = experiment: as above; details: application to foliage, application herbicide amount 320 g/ha
Procedure, shortened: as §2

[4] = test system: Beta vulgaris ssp. vulgaris; experiment: as above; details: application to foliage, application herbicide amount 320 g/ha
Procedure, shortened: as §2

| Compound | E (herbicidal effect grade) (Cyperus difformis) | H (herbicidal effect grade) [1] | D (herbicidal effect grade) (Leptochloa chinensis) | O: herbicidal effect on Chenopodium album (Chenopodium album) | L: herbicidal effect on Apera spica-venti. (Apera spica-venti.) | Q: herbicidal effect on Galium spurium (Galium spurium) | J: herbicidal effect on Alopecurus myosuroides (Alopecurus myosuroides) | M: herbicidal effect on Abutilon theophrasti (Abutilon theophrasti) | F: herbicidal effect on Digitaria ciliaris (Digitaria ciliaris) | G: herbicidal effect on Setaria viridis (Setaria viridis) | I: herbicidal effect on Avena fatua (Avena fatua) | K: herbicidal effect on Lolium multiflorum Lam. (Lolium multiflorum Lam.) | H: herbicidal effect on Echinochloa crus-galli var. crus-galli [2] | b: effect on crop, directly sowed Oryza sativa [3] | c: effect on crop, Zea mays (Zea mays) | d: effect on crop, Glycine max (Glycine max) | e: effect on crop, Triticum aestivum (Triticum aestivum) | g: effect on crop, Brassica campestris L. (Brassica campestris L.) | f: effect on crop, Beta vulgaris ssp. vulgaris [4] |
| --- | --- | --- | --- | --- | --- | --- | --- | --- | --- | --- | --- | --- | --- | --- | --- | --- | --- | --- | --- |
| Cc1nnc(NC(=O)c2ccc(C(F)(F)F)n3c(CC(F)(F)F)nnc23)o1 [1-162] | 2 (Herbicidal ratio of 20% or more and less than 40%) | 4 (Herbicidal ratio of 70% or more and less than 90%) | 4 (Herbicidal ratio of 70% or more and less than 90%) | 4 (Herbicidal ratio of 70% or more and less than 90%) | 0 (Herbicidal ratio of 5% or less (almost no effect)) | 2 (Herbicidal ratio of 20% or more and less than 40%) | 1 (Herbicidal ratio of 5% or more and less than 20%) | 3 (Herbicidal ratio of 40% or more and less than 70%) | 3 (Herbicidal ratio of 40% or more and less than 70%) | 1 (Herbicidal ratio of 5% or more and less than 20%) | 1 (Herbicidal ratio of 5% or more and less than 20%) | 1 (Herbicidal ratio of 5% or more and less than 20%) | 4 (Herbicidal ratio of 70% or more and less than 90%) | 0 (Herbicidal ratio of 5% or less (almost no effect)) | 0 (Herbicidal ratio of 5% or less (almost no effect)) | 3 (Herbicidal ratio of 40% or more and less than 70%) | 0 (Herbicidal ratio of 5% or less (almost no effect)) | 1 (Herbicidal ratio of 5% or more and less than 20%) | 3 (Herbicidal ratio of 40% or more and less than 70%) |
| C#CCN(C)c1nnc2c(C(=O)Nc3nnco3)ccc(C(F)(F)F)n12 [1-163] | 4 (Herbicidal ratio of 70% or more and less than 90%) | 5 (Herbicidal ratio of 90% or more (almost completely withered)) | 5 (Herbicidal ratio of 90% or more (almost completely withered)) | 5 (Herbicidal ratio of 90% or more (almost completely withered)) | 1 (Herbicidal ratio of 5% or more and less than 20%) | 3 (Herbicidal ratio of 40% or more and less than 70%) | 1 (Herbicidal ratio of 5% or more and less than 20%) | 4 (Herbicidal ratio of 70% or more and less than 90%) | 4 (Herbicidal ratio of 70% or more and less than 90%) | 3 (Herbicidal ratio of 40% or more and less than 70%) | 2 (Herbicidal ratio of 20% or more and less than 40%) | 1 (Herbicidal ratio of 5% or more and less than 20%) | 5 (Herbicidal ratio of 90% or more (almost completely withered)) | 0 (Herbicidal ratio of 5% or less (almost no effect)) | 0 (Herbicidal ratio of 5% or less (almost no effect)) | 4 (Herbicidal ratio of 70% or more and less than 90%) | 1 (Herbicidal ratio of 5% or more and less than 20%) | 3 (Herbicidal ratio of 40% or more and less than 70%) | 4 (Herbicidal ratio of 70% or more and less than 90%) |
